Like-named read-outs stand apart in the source and are kept apart here.
Experiments:
hGIPR = biological target: T1, hGIPR (Homo sapiens, UniProt P48546); test: hGIPR CreLuc assay in 0.5% and 100% plasma (CHO CRE-luciferase reporter cells); assay type: cell-based
T1 construct: expressed in transfected cells; host or cells: CHO CRE-luciferase reporter cells
T1 sequence (P48546 22-466): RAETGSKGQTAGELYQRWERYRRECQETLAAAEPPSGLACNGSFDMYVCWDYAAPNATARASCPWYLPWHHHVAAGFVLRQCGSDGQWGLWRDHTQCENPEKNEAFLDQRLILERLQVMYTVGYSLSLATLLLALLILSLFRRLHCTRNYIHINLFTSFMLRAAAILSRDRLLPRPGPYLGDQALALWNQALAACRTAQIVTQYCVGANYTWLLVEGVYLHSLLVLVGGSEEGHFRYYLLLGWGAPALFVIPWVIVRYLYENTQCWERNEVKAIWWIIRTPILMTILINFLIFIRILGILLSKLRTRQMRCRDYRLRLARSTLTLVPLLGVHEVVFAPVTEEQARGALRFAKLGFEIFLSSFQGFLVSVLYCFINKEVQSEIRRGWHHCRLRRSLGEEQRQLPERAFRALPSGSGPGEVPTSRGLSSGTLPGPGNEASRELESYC

hGLP1R = biological target: T2, hGLP1R (Homo sapiens, UniProt P43220); test: hGLP1R CreLuc assay in 0.5% and 100% plasma (HEK-293 CRE-luciferase reporter cells); assay type: cell-based; conditions: HEK-293 reporter cells
T2 construct: expressed in transfected cells; host or cells: HEK-293 CRE-luciferase reporter cells
T2 sequence (P43220 24-463): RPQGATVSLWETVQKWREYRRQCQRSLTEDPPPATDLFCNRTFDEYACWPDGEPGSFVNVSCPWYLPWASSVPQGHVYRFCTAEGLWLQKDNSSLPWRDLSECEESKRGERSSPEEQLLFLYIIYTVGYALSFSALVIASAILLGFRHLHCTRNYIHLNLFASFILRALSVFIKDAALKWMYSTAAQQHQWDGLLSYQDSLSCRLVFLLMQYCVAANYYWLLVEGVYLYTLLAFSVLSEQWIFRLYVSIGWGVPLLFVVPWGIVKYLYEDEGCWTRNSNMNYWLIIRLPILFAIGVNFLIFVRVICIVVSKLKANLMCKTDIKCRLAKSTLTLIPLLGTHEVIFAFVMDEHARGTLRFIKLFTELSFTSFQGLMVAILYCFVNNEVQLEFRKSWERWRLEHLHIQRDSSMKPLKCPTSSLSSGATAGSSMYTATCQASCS

[1] = Solubility in 0.1 M phosphate buffer at pH 7; assay type: physicochemical; conditions: 0.1 M phosphate buffer at pH 7, 10 mg/mL final peptide concentration, shaking 2 hours at room temperature, peptides as TFA-salts; measured sample pH 6.5-7.0
[2] = 0.5% human plasma, read-out: hGIPR 0.5% hP
[3] = 0.5% human plasma, read-out: hGLP1R 0.5% hP
[4] = 100% human plasma, read-out: hGLP1R 100% hP

SMILES: CC[C@H](C)[C@H](NC(=O)[C@H](CC(C)C)NC(=O)[C@H](Cc1c[nH]cn1)NC(=O)[C@H](CCCNC(=N)N)NC(=O)[C@@H](NC(=O)[C@H](Cc1ccccc1)NC(=O)[C@H](C)NC(=O)C(C)(C)NC(=O)[C@H](CCC(N)=O)NC(=O)[C@H](C)NC(=O)[C@H](CCC(=O)O)NC(=O)[C@H](CCC(=O)O)NC(=O)[C@H](CCC(=O)O)NC(=O)[C@H](CC(C)C)NC(=O)C(C)(C)NC(=O)[C@@H](NC(=O)[C@H](CO)NC(=O)[C@H](Cc1ccc(O)cc1)NC(=O)[C@H](CC(=O)O)NC(=O)[C@H](CO)NC(=O)[C@@H](NC(=O)[C@H](Cc1ccccc1)NC(=O)[C@@H](NC(=O)CNC(=O)[C@H](CCC(=O)O)NC(=O)C(C)(C)NC(=O)[C@@H](N)Cc1ccc(O)cc1)[C@@H](C)O)[C@@H](C)O)[C@@H](C)CC)C(C)C)C(=O)N[C@@H](CC(N)=O)C(=O)N[C@@H](CCCCNC(=O)CC[C@H](NC(=O)CC[C@H](NC(=O)CC[C@H](NC(=O)CC[C@H](NC(=O)CCCCCCCCCCCCCCCCC(=O)O)C(=O)O)C(=O)O)C(=O)O)C(=O)O)C(=O)NC(C)(C)C(=O)N[C@H](C(=O)N[C@@H](CCCNC(=N)N)C(=O)N[C@@H](CCC(N)=O)C(=O)N[C@@H](CCCNC(=N)N)C(=O)N[C@@H](Cc1ccc(O)cc1)C(N)=O)[C@@H](C)O [Compound 25, Y-Aib-E-G-T-F-T-S-D-Y-S-I-Aib-L-E-E-E-A-Q-Aib-A-F-V-R-H-L-I-N-K(1,3)-Aib-T-R-Q-R-Y-NH2.C18DA-gGlu-gGlu-gGlu-gGlu(1,2)]
- EC50 (hGIPR; [2]): 0.4 nM
- EC50 (hGLP1R; [3]): 0.7 nM
- EC50 (hGLP1R; [4]): 2 nM
- solubility at 2 h [1]: 4800 µg/mL

SMILES: CC[C@H](C)[C@H](NC(=O)[C@H](CC(C)C)NC(=O)[C@H](Cc1c[nH]cn1)NC(=O)[C@H](CCCNC(=N)N)NC(=O)[C@@H](NC(=O)[C@H](Cc1ccccc1)NC(=O)[C@H](CCC(=O)O)NC(=O)C(C)(C)NC(=O)[C@H](CCC(N)=O)NC(=O)[C@H](C)NC(=O)[C@H](CCC(N)=O)NC(=O)[C@H](CCCCN)NC(=O)[C@H](CCC(=O)O)NC(=O)[C@H](CC(C)C)NC(=O)C(C)(C)NC(=O)[C@@H](NC(=O)[C@H](CO)NC(=O)[C@H](Cc1ccc(O)cc1)NC(=O)[C@H](CC(=O)O)NC(=O)[C@H](CO)NC(=O)[C@@H](NC(=O)[C@H](Cc1ccccc1)NC(=O)[C@@H](NC(=O)CNC(=O)[C@H](CCC(=O)O)NC(=O)C(C)(C)NC(=O)[C@@H](N)Cc1ccc(O)cc1)[C@@H](C)O)[C@@H](C)O)[C@@H](C)CC)C(C)C)C(=O)N[C@@H](CC(N)=O)C(=O)N[C@@H](CCCCNC(=O)[C@@H](N)CCCCNC(=O)CC[C@H](NC(=O)CC[C@H](NC(=O)CC[C@H](NC(=O)CC[C@H](NC(=O)CC[C@H](NC(=O)CC[C@H](NC(=O)CC[C@H](NC(=O)CCCCCCCCCCCCCCCCC(=O)O)C(=O)O)C(=O)O)C(=O)O)C(=O)O)C(=O)O)C(=O)O)C(=O)O)C(=O)NC(C)(C)C(=O)N[C@H](C(=O)N[C@@H](CCCNC(=N)N)C(=O)N[C@@H](CCC(N)=O)C(=O)N[C@@H](CCCNC(=N)N)C(=O)N[C@@H](Cc1ccc(O)cc1)C(N)=O)[C@@H](C)O [Compound 30, Y-Aib-E-G-T-F-T-S-D-Y-S-I-Aib-L-E-K-Q-A-Q-Aib-E-F-V-R-H-L-I-N-K(1,3)-Aib-T-R-Q-R-Y-NH2.C18DA-gGlu-gGlu-gGlu-gGlu-gGlu-gGlu-gGlu-eLys(1,2)]
- EC50 (hGIPR; [2]): 0.3 nM
- EC50 (hGLP1R; [4]): 0.9 nM
- solubility at 2 h [1]: 4700 µg/mL

SMILES: CC[C@H](C)[C@H](NC(=O)[C@H](CCCCN)NC(=O)[C@H](CC(=O)O)NC(=O)[C@H](CC(C)C)NC(=O)C(C)(C)NC(=O)[C@@H](NC(=O)[C@H](CO)NC(=O)[C@H](Cc1ccc(O)cc1)NC(=O)[C@H](CC(=O)O)NC(=O)[C@H](CO)NC(=O)[C@@H](NC(=O)[C@H](Cc1ccccc1)NC(=O)[C@@H](NC(=O)CNC(=O)[C@H](CCC(=O)O)NC(=O)C(C)(C)NC(=O)[C@@H](N)Cc1ccc(O)cc1)[C@@H](C)O)[C@@H](C)O)[C@@H](C)CC)C(=O)N[C@@H](C)C(=O)N[C@@H](CCC(N)=O)C(=O)NC(C)(C)C(=O)N[C@@H](C)C(=O)N[C@@H](Cc1ccccc1)C(=O)N[C@H](C(=O)N[C@@H](CCCNC(=N)N)C(=O)N[C@@H](Cc1c[nH]cn1)C(=O)N[C@@H](CC(C)C)C(=O)N[C@H](C(=O)N[C@@H](CC(N)=O)C(=O)N[C@@H](CCCCNC(=O)[C@@H](N)CCCCNC(=O)CC[C@H](NC(=O)CC[C@H](NC(=O)CC[C@H](NC(=O)CC[C@H](NC(=O)CC[C@H](NC(=O)CC[C@H](NC(=O)CCCCCCCCCCCCCCCCC(=O)O)C(=O)O)C(=O)O)C(=O)O)C(=O)O)C(=O)O)C(=O)O)C(=O)NC(C)(C)C(=O)N[C@H](C(=O)N[C@@H](CCCNC(=N)N)C(=O)N[C@@H](CCC(N)=O)C(=O)N[C@@H](CCCNC(=N)N)C(=O)N[C@@H](Cc1ccc(O)cc1)C(N)=O)[C@@H](C)O)[C@@H](C)CC)C(C)C [Compound 33, Y-Aib-E-G-T-F-T-S-D-Y-S-I-Aib-L-D-K-I-A-Q-Aib-A-F-V-R-H-L-I-N-K(1,3)-Aib-T-R-Q-R-Y-NH2.C18DA-gGlu-gGlu-gGlu-gGlu-gGlu-gGlu-eLys(1,2)]
- EC50 (hGIPR; [2]): 0.7 nM
- EC50 (hGLP1R; [3]): 0.1 nM
- EC50 (hGLP1R; [4]): 1 nM
- solubility at 2 h [1]: 8900 µg/mL

SMILES: CC[C@H](C)[C@H](NC(=O)[C@H](CC(C)C)NC(=O)[C@H](Cc1c[nH]cn1)NC(=O)[C@H](CCCNC(=N)N)NC(=O)[C@@H](NC(=O)[C@H](Cc1ccccc1)NC(=O)[C@H](C)NC(=O)C(C)(C)NC(=O)[C@H](CCC(N)=O)NC(=O)[C@H](C)NC(=O)[C@H](CCC(N)=O)NC(=O)[C@H](CCCCN)NC(=O)[C@H](CCC(=O)O)NC(=O)[C@H](CC(C)C)NC(=O)C(C)(C)NC(=O)[C@@H](NC(=O)[C@H](CO)NC(=O)[C@H](Cc1ccc(O)cc1)NC(=O)[C@H](CC(=O)O)NC(=O)[C@H](CO)NC(=O)[C@@H](NC(=O)[C@H](Cc1ccccc1)NC(=O)[C@@H](NC(=O)CNC(=O)[C@H](CCC(=O)O)NC(=O)C(C)(C)NC(=O)[C@@H](N)Cc1ccc(O)cc1)[C@@H](C)O)[C@@H](C)O)[C@@H](C)CC)C(C)C)C(=O)N[C@@H](CC(N)=O)C(=O)N[C@@H](CCCCNC(=O)CC[C@H](NC(=O)CC[C@H](NC(=O)[C@@H](N)CCCCNC(=O)CC[C@H](NC(=O)CC[C@H](NC(=O)CC[C@H](NC(=O)CC[C@H](NC(=O)CCCCCCCCCCCCCCCCC(=O)O)C(=O)O)C(=O)O)C(=O)O)C(=O)O)C(=O)O)C(=O)O)C(=O)NC(C)(C)C(=O)N[C@H](C(=O)N[C@@H](CCCNC(=N)N)C(=O)N[C@@H](CCC(N)=O)C(=O)N[C@@H](CCCNC(=N)N)C(=O)N[C@@H](Cc1ccc(O)cc1)C(N)=O)[C@@H](C)O [Compound 34, Y-Aib-E-G-T-F-T-S-D-Y-S-I-Aib-L-E-K-Q-A-Q-Aib-A-F-V-R-H-L-I-N-K(1,3)-Aib-T-R-Q-R-Y-NH2.C18DA-gGlu-gGlu-gGlu-gGlu-eLys-gGlu-gGlu(1,2)]
- EC50 (hGIPR; [2]): 0.2 nM
- EC50 (hGLP1R; [3]): 0.3 nM
- solubility at 2 h [1]: 10600 µg/mL

SMILES: CC[C@H](C)[C@H](NC(=O)[C@H](CC(C)C)NC(=O)[C@H](Cc1c[nH]cn1)NC(=O)[C@H](CCCNC(=N)N)NC(=O)[C@@H](NC(=O)[C@H](Cc1ccccc1)NC(=O)[C@H](C)NC(=O)C(C)(C)NC(=O)[C@H](CCC(N)=O)NC(=O)[C@H](C)NC(=O)[C@H](CCC(N)=O)NC(=O)[C@H](CCCCN)NC(=O)[C@H](CCC(=O)O)NC(=O)[C@H](CC(C)C)NC(=O)C(C)(C)NC(=O)[C@@H](NC(=O)[C@H](CO)NC(=O)[C@H](Cc1ccc(O)cc1)NC(=O)[C@H](CC(=O)O)NC(=O)[C@H](CO)NC(=O)[C@@H](NC(=O)[C@H](Cc1ccccc1)NC(=O)[C@@H](NC(=O)CNC(=O)[C@H](CCC(=O)O)NC(=O)C(C)(C)NC(=O)[C@@H](N)Cc1ccc(O)cc1)[C@@H](C)O)[C@@H](C)O)[C@@H](C)CC)C(C)C)C(=O)N[C@@H](CC(N)=O)C(=O)N[C@@H](CCCCNC(=O)CC[C@H](NC(=O)CC[C@H](NC(=O)CC[C@H](NC(=O)CC[C@H](NC(=O)CC[C@H](NC(=O)CCCCCCCCCCCCCCCCC(=O)O)C(=O)O)C(=O)O)C(=O)O)C(=O)O)C(=O)O)C(=O)N[C@H](C(=O)N[C@H](C(=O)N[C@@H](CCCNC(=N)N)C(=O)N[C@@H](CCC(N)=O)C(=O)N[C@@H](CCCNC(=N)N)C(=O)N[C@@H](Cc1ccc(O)cc1)C(N)=O)[C@@H](C)O)[C@@H](C)CC [Compound 41, Y-Aib-E-G-T-F-T-S-D-Y-S-I-Aib-L-E-K-Q-A-Q-Aib-A-F-V-R-H-L-I-N-K(1,3)-I-T-R-Q-R-Y-NH2.C18DA-gGlu-gGlu-gGlu-gGlu-gGlu(1,2)]
- EC50 (hGIPR; [2]): 0.3 nM
- EC50 (hGIPR; 100% human plasma, read-out: hGIPR 100% hP): 7.1 nM
- EC50 (hGLP1R; [3]): 0.9 nM
- EC50 (hGLP1R; [4]): 5 nM
- solubility at 2 h [1]: 4000 µg/mL
